Source: PubChem BioAssay AID179 (DTP/NCI, 2004)
Values joined by “and” are separate entries in the source; they are usually repeats but may differ in a detail not shown here. Identical values can stand only once. Active and inactive are the calls of the source.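 The calls were made as follows: active = compounds giving half or more protection of infected cells from virus-caused growth loss, again on retest; inactive = the rest.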

Tested on: CEM cells HIV-1 protection, formazan growth assay
Experiment: NCI AIDS Antiviral Assay
Details: for IC50: measured here: growth of uninfected CEM cells
How it was run: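 Soluble formazan readout of cell growth; CEM cells ± HIV-1; 5 drug concs. ≥50% protection → retest; ≥50% again = moderately active; reproducible 100% = confirmed active.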

| SMILES | EC50 | IC50 | outcome |
| --- | --- | --- | --- |
| C1=Cc2nc1c(-c1ccccc1)c1ccc([nH]1)c(-c1ccccc1)c1nc(c(-c3ccccc3)c3ccc([nH]3)c2-c2ccccc2)C=C1 | > 2.34 µM | > 2.34 µM |  |
| N#CC(c1ccc(Cl)cc1)c1cccc(Cl)n1 (configuration not stated) | > 70.8 µM | > 70.8 µM |  |
| c1ccc2nc3c(nc2c1)sc1nc2ccccc2n13 | > 200 µM | > 200 µM |  |
| C[S+](C)(=O)CCCS(=O)(=O)[O-] | > 200 µM | > 200 µM |  |
| CCOC(=O)c1nc2ccc(C(F)(F)F)cc2nc1NCc1cc(OC)c(OC)c(OC)c1 | > 126 µM | > 126 µM |  |
| Cc1ccc(C)c(N2C(=O)C(=O)C(c3nc4ccccc4o3)/C(=N/N)C2=O)c1 (configuration not stated) |  |  | inactive |
| Cc1ccc(NC(=O)/C(CC(=O)c2c[n+](=O)c3ccccc3n2O)=N\NC(=O)C[n+]2ccccc2)cc1 | > 43.7 µM | > 43.7 µM |  |
| CC1(C)C2CCC(C2)C1/C=C1/SC(=S)NC1=O (configuration not stated) | > 200 µM | 10 µM |  |
| O=S(O)CCCCCSSc1ccccc1 |  |  | inactive |
| NC1=NNC2(C(N)=N1)c1ccccc1-c1ccccc12 | > 200 µM | 51.3 µM |  |
| CCOC(=O)C(=C/C=C/NCCc1c[nH]c2ccccc12)C(=O)OCC | > 10.7 µM | > 10.7 µM |  |
| c1csc(-c2ccsc2-c2cccs2)c1 | > 200 µM | 97.7 µM |  |
| O=C(CCCN1CCc2[nH]c3ccccc3c2C1)c1ccc(F)cc1 | > 200 µM | 33.9 µM |  |
| COc1cc2c(cc1OC)CN1CCCc3cc(OC)c(OC)cc3C1C2 (configuration not stated) | > 200 µM | 32.4 µM |  |
| N#Cc1ccc(Nc2cnc3ccc(N)cc3n2)cc1 | > 10.5 µM | > 10.5 µM |  |
| C=C[C+](CCCC)C(=O)[O-] | 589 µM | 631 µM |  |
| CCCCN=C(N)N=C(N)N | > 200 µM | 93.3 µM |  |
| COc1ccc(CN2CCCN(/N=C/c3c4c(O)c5c(O)c(C)c6c(c5c3O)C(=O)C(C)(O/C=C/C(OC)C(C)C(OC(C)=O)C(C)C(O)C(C)C(O)C(C)/C=C/C=C(C)C(=O)N4)O6)CC2)cc1 (configuration not stated) | > 200 µM | 12 µM |  |
| N#CCCN(c1ccc(C=O)cc1)S(=O)(=O)c1ccccc1 | > 22.9 µM | > 22.9 µM |  |
| Nc1c(Br)cc2c([nH]c(=O)c3cc(Br)ccc32)c1Br | > 200 µM | 38.9 µM |  |
| COc1ccc(/C=C2/SC(c3c(O)ccc4ccccc34)N(NC(=O)CCCCCCCCC(=O)NN3C(=O)/C(=C\c4ccc(OC)c(OC)c4)SC3c3c(O)ccc4ccccc34)C2=O)cc1OC (configuration not stated) | > 200 µM | 8.51 µM |  |
| CC(C)(C)[Si](C)(C)OCC1OC(n2cc(I)c(=O)[nH]c2=O)C(O[Si](C)(C)C(C)(C)C)C1O[Si](C)(C)C(C)(C)C (configuration not stated) | > 200 µM | 17.4 µM |  |
| CN(CC#N)C1CCC[C@]1(O)/C=C/[Si](C)(C)C (some centres not stated) | > 102 µM | > 102 µM |  |

| SMILES | EC50 | IC50 | outcome |
| --- | --- | --- | --- |
| CN(C)CCCNc1ccc([N+](=O)[O-])c2nc3ccccc3c(N)c12 | > 200 µM | 0.209 µM |  |
| N.N.N.N.[Co+3].[N-]=[N+]=[N-].[N-]=[N+]=[N-].[N-]=[N+]=[N-] |  |  | inactive |
| N#CC1(C#N)C(c2ccccc2)NC23CCCCC2C1(C#N)C(=O)N3 (configuration not stated) | > 200 µM | 81.3 µM |  |
| C/C(=N/O)c1sc(-c2nc(C)c(/C(C)=N\O)s2)nc1C | > 115 µM | > 115 µM |  |
| Brc1cccc(N=NN2CCCC2)c1 | > 200 µM | 36.3 µM |  |
| Cc1cc(=O)c2ccccc2o1 |  |  | inactive |
| Oc1cc(Br)cc2cc(Cl)cnc12 | > 200 µM | 1.02 µM |  |
| Cc1ccc(Nc2nc(=O)[nH]c(=O)[nH]2)cc1N | > 200 µM | > 200 µM |  |
| O=S(=O)(O)c1cc(N=Cc2cc(S(=O)(=O)O)c3cccnc3c2O)ccc1/C=C\c1ccc(N=Cc2cc(S(=O)(=O)O)c3cccnc3c2O)cc1S(=O)(=O)O | > 38.9 µM | > 38.9 µM |  |
| Cc1ccc(NC(=O)CC(=O)n2nc(C)c(N=Nc3ccc(S(=O)(=O)CCOS(=O)(=O)O)cc3)c2C)cc1 | > 200 µM | > 200 µM |  |
| COc1c(C)cc(C(=O)c2cc(C)c(OC)c(Br)c2)cc1Br | > 100 µM | 95.5 µM |  |
| NC(CC(=O)N/C=N\O)C(=O)O (configuration not stated) | > 200 µM | > 200 µM |  |
| N#CC(O)CCOCc1ccccc1 (configuration not stated) | > 200 µM | 53.7 µM |  |
| CC1CC2CC(=O)CC3(C1)C2CCCN3CCCO (configuration not stated) |  |  | inactive |
| O=C1NC(N/N=C\c2ccccc2)=N/C1=C/c1ccccc1 | > 200 µM | 35.5 µM |  |
| COc1cc(O)c2c(c1C)C(C)(O)c1c(C)coc1C2=O (configuration not stated) |  |  | inactive |
| CCOc1ccccc1NC(=O)CC(C(=O)OC)C(=O)C(=O)OC (configuration not stated) | > 537 µM | > 537 µM |  |
| CCOP(=O)(OCC)C(C)(CC)N/C(=N/C(NC(C)=O)(C(F)(F)F)C(F)(F)F)NC1=NC(C(F)(F)F)(C(F)(F)F)N=C(C(F)(F)F)O1 (configuration not stated) | > 200 µM | 14.5 µM |  |
| CC(C)(C)C1CCC2(CC1)CO2 (configuration not stated) | > 200 µM | 195 µM |  |
| O.O.O=C(O)C(=O)O.O=C(O)C(=O)O.[Cu] | > 200 µM | 20.9 µM |  |
| Nc1cc2nc3ccccc3sc-2cc1=O | 3.39 µM | 60.3 µM |  |
| CCOC(=O)c1c(NC(=O)c2ccccc2)sc2c1CCC2 | > 151 µM | > 151 µM |  |
| CN(C)CCSC1=Nc2ccc(Cl)cc2C(c2ccccc2Cl)=NC1 | > 200 µM | 12.3 µM and 47.9 µM |  |

| SMILES | EC50 | IC50 | outcome |
| --- | --- | --- | --- |
| CCC1=CC(OCc2ccccc2)C(CCN(Cc2ccccc2)C(=O)OCc2ccccc2)C1 (configuration not stated) | > 200 µM | 9.55 µM |  |
| C/C(=N\NC(N)=S)c1cn(C2OC(CO)C(O)C2O)c(=O)[nH]c1=O (configuration not stated) |  |  | inactive |
| CC(=O)c1sc2c(c1OC(=O)c1ccc(Cl)cc1)c(=O)n(-c1ccccc1)c(=S)n2-c1ccccc1 | > 200 µM | 0.776 µM |  |
| O=c1c2ncn(C3CCCO3)c2n(-c2ccccc2)c(=S)n1-c1ccccc1 (configuration not stated) | > 200 µM | > 200 µM |  |
| C[N+]1(C)CCCC1C(=O)[O-] (configuration not stated) | > 1740 µM | > 1740 µM |  |
| COC12C=CC(CC1)C(C)(C)C2=O (configuration not stated) | > 200 µM | > 200 µM |  |
| COC1/C=C/OC2(C)Oc3c(C)c(O)c4c(O)c(c(C=Nc5cccc(C)c5)c(O)c4c3C2=O)NC(=O)C(C)=C/C=C/C(C)C(O)C(C)C(O)C(C)C(OC(C)=O)C1C (configuration not stated) | > 174 µM | 28.8 µM |  |
| CCOC(=O)C[C@@H](C)[C@]1(C(=O)OC)CCCC1=O | > 708 µM | > 708 µM |  |
| Cc1ccc(S(=O)(=O)OI(O)CC(F)(F)F)cc1 | > 200 µM | > 200 µM |  |
| COC(CN(C(C)=O)C1CCC2(SCCS2)c2[nH]c3ccccc3c21)OC (configuration not stated) | > 200 µM | 123 µM |  |
| Cc1cnc2c(c1)C(=O)N(c1ccc([N+](=O)[O-])cc1)S2(=O)=O | > 200 µM | 17.4 µM |  |
| CCN(CC)CCC(=O)NC1c2ccccc2Oc2c(C)cccc21 (configuration not stated) | > 275 µM | 58.9 µM |  |
| O=C1CN(Cc2ccccc2)CC(=O)N2C(c3ccccc3)CCCN12 (configuration not stated) |  |  | inactive |
| CC(=O)Oc1cccc2c(/C=N/NC(N)=S)ncc(C)c12 | > 200 µM | 1.23 µM |  |
| O=C1C(Cl)N(c2ccc(Cl)cc2Cl)C1c1c[nH]c2ccccc12 (configuration not stated) | > 70.8 µM | > 70.8 µM |  |
| CCOC(=O)CCC1(C)OCC(COC)O1 (configuration not stated) | > 200 µM | > 200 µM |  |
| CCC(=O)Nc1nc2c(ncn2C2OC(COC(=O)CC)C(OC(=O)CC)C2OC(=O)CC)c(=O)[nH]1 (configuration not stated) | > 355 µM | 309 µM |  |
| O=C(/C=C/c1ccc(O)c(O)c1)OCCc1ccc2ccccc2c1 | > 200 µM | 4.68 µM |  |
| CCOC(=O)C1(C(=O)OCC)NC(=O)CC1CC (configuration not stated) |  |  | inactive |
| CCc1c(Sc2ccccn2)n(COCc2ccccc2)c(=O)[nH]c1=O | 91.2 µM | 339 µM |  |
| CCOC(=O)C1CC(C(=O)c2ccccc2)N2c3ccccc3-c3ccccc3C12 (configuration not stated) | > 200 µM | 8.51 µM |  |
| CCOC(=O)CCC(NC(=O)c1ccc(N=Cc2nc3cc(C(F)(F)F)ccc3nc2-c2ccccc2)cc1)C(=O)OCC (configuration not stated) | > 5.89 µM | > 5.89 µM |  |
| CC(C(=O)O)/C(=C\c1ccc2c(c1)OCO2)C(=O)O (configuration not stated) |  |  | inactive |

| SMILES | EC50 | IC50 | outcome |
| --- | --- | --- | --- |
| O=[N+]([O-])c1ccc(Cl)c(C=NC23CC4CC(CC(C4)C2)C3)c1 | > 200 µM | 3.89 µM |  |
| CCCCCCCC(=O)OC[C@@H](C[As](=O)(O)O)OC(=O)CCCCCCC | > 200 µM | 9.33 µM |  |
| Cc1ccc2c(c1)-c1c3c(nn1C)-c1ccccc1SC3O2 (configuration not stated) | > 23.4 µM | > 23.4 µM |  |
| CCOC(=O)C/C(O)=C(/C=N/C(=S)NNC(C)=O)C(=O)OCC | > 200 µM | > 200 µM |  |
| O=C1c2ccccc2C(Br)(Br)c2ccccc21 |  |  | inactive |
| CC(=O)/C(=C/n1ccc(=O)[nH]c1=S)C(=O)Nc1ccc([N+](=O)[O-])cc1 | > 200 µM | 102 µM |  |
| CC12CCC(C(S(=O)(=O)Nc3ccccc3)C1=O)C2(C)C (configuration not stated) | > 200 µM | 138 µM |  |
| CCCCCCCCCCCCC/C=C\[C@@H](OC(=O)c1ccccc1)C(CO)N=[N+]=[N-] (some centres not stated) |  |  | inactive |
| Nc1ccn(C2SC(CO)CC2F)c(=O)n1 (configuration not stated) | > 25.1 µM | > 25.1 µM |  |
| CCOP(=O)(Nc1cccc(Cl)c1)OCC | > 955 µM |  |  |
| N#C[C@H](OC1OC(COC(=O)/C=C/c2ccc(O)c(O)c2)C(O)C(O)C1O)c1ccccc1 (some centres not stated) |  |  | inactive |
| Nc1ccccc1OCCCOc1ccccc1N | > 200 µM | 110 µM |  |
| COC(=O)[C@H]1COC(=S)N1C(=O)[C@@H](C)[C@H](O)C(C)C | > 631 µM | > 631 µM |  |
| Cc1c2c(C(N)=O)nccc2c(C)c2c1c1ccccc1n2Cc1ccccc1 |  |  | inactive |
| O=C(NCCCN1CC2CCCC2C1)C(c1ccccc1)c1ccccc1 (configuration not stated) | > 200 µM | 39.8 µM |  |
| COc1c2c(cc3c1[C@@H]1Oc4c(ccc(O)c4CC=C(C)C)[C@@H]1CO3)OC(C)(C)C=C2 | 2.24 µM | 23.4 µM |  |
| CCCCCCCCCCCCCCCCSS(=O)(=O)CCCCCCCC | > 74.1 µM | > 74.1 µM |  |
| C/C(=N\NC(=O)/C(C#N)=C\c1ccc(N(CCC#N)CCC#N)cc1)c1ccccc1 |  |  | inactive |
| Cn1cc2c(c1-c1ccccc1)[n+](=O)c1ccccc1n2[O-] | 5.13 µM | 32.4 µM |  |
| O=[N+]([O-])c1ccc(CN(CCCl)OCCCl)cc1 | > 200 µM | 37.2 µM |  |
